Among the test systems are A549 NSCLC; ACHN renal; CCRF-CEM leukemia; HCC-2998 colon; HL-60(TB) leukemia; HOP-92 NSCLC; K-562 leukemia; OVCAR-5 ovarian; SF-295 CNS; SW-620 colon.
Common to all, as to experiment: inhibition of tumour cell growth, NCI panel, 48 h

The structures appear in SMILES notation.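 Protocol summary: plate cells (96-well), add compound at 5 concentrations, incubate 48 h, interpolate endpoints linearly. The concentration for 50% growth inhibition is given as GI50. TGI denotes the concentration required for complete inhibition of growth.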

The text below walks through data of PubChem BioAssay (NCI).

As for `COc1cc2c(cc1OCCCOc1cc3c(cc1OC)C(=O)N1CC(F)(F)C[C@H]1C=N3)N=C[C@@H]1CC(F)(F)CN1C2=O`, the GI50 with A549 NSCLC is 3.79 µM; in the assay with ACHN renal it was 0.973 µM; in the assay on HCC-2998 colon, 1.37 µM; in the assay with HL-60(TB) leukemia, 0.0984 µM; in the assay with HOP-92 NSCLC, 0.336 µM; with K-562 leukemia, 0.601 µM. In addition, the values for the GI50 in the assay on OVCAR-5 ovarian, in the assay on SF-295 CNS and in the assay with SW-620 colon were 1.74 µM, 0.0635 µM and 0.469 µM, respectively. Further, the TGI in the assay with A549 NSCLC is above 100 µM; with ACHN renal, 13.9 µM; in the assay with CCRF-CEM leukemia, 1.06 µM; in the assay with HCC-2998 colon, 3.45 µM; in the assay on HL-60(TB) leukemia, 2 µM; with HOP-92 NSCLC it was 7.73 µM. The TGI in the assay with K-562 leukemia amounted to 4.81 µM; in the assay with OVCAR-5 ovarian it was 8.99 µM; in the assay on SF-295 CNS, 0.539 µM; with SW-620 colon, 4.03 µM.

`COc1ccc2c(c1)C(=O)c1c-2n(CCCCl)c(=O)c2cc([N+](=O)[O-])ccc12`: the GI50 in the assay on A549 NSCLC is 0.196 µM; in the assay on ACHN renal, below 0.01 µM; in the assay with CCRF-CEM leukemia, below 0.01 µM; in the assay with HCC-2998 colon it was 0.996 µM; in the assay with HL-60(TB) leukemia, below 0.037 µM; in the assay with OVCAR-5 ovarian it was 1.26 µM. Also, the GI50 in the assay on SF-295 CNS was below 0.01 µM; with SW-620 colon, 0.123 µM. The TGI with A549 NSCLC is above 100 µM; in the assay on CCRF-CEM leukemia, 0.212 µM; with HCC-2998 colon it was above 28.6 µM; in the assay on HL-60(TB) leukemia, 0.147 µM; in the assay on K-562 leukemia, above 100 µM; in the assay with OVCAR-5 ovarian, above 26.4 µM. The same molecule returned a TGI with SF-295 CNS of 0.21 µM.

Consider `N=C(N)SC(c1ccccc1)c1ccccc1`, for which the TGI was 95.2 µM with A549 NSCLC; 29.8 µM in the assay on ACHN renal; 32.1 µM in the assay on CCRF-CEM leukemia; 20.1 µM in the assay on HCC-2998 colon; 36.8 µM in the assay with HL-60(TB) leukemia; 22.9 µM in the assay on HOP-92 NSCLC. In addition, the TGI in the assay with K-562 leukemia worked out at 85.3 µM; in the assay with OVCAR-5 ovarian, 32.2 µM; with SF-295 CNS, 34.7 µM; in the assay on SW-620 colon, 44.6 µM.

With `NS(=O)(=O)c1ccc(C(=O)O)cc1`, the TGI with A549 NSCLC, in the assay on ACHN renal, in the assay with CCRF-CEM leukemia, with HL-60(TB) leukemia, with HOP-92 NSCLC and with K-562 leukemia was above 100 µM throughout. Moreover, the TGI in the assay with OVCAR-5 ovarian, with SF-295 CNS and in the assay on SW-620 colon was above 100 µM in each case.

Take `CC(C)(c1ccccc1)c1ccc(Oc2ccc3c(c2)-c2nc-3nc3[nH]c(nc4nc(nc5[nH]c(n2)c2ccc(Oc6ccc(C(C)(C)c7ccccc7)cc6)cc52)-c2cc(Oc5ccc(C(C)(C)c6ccccc6)cc5)ccc2-4)c2ccc(Oc4ccc(C(C)(C)c5ccccc5)cc4)cc32)cc1`: the TGI with A549 NSCLC, with ACHN renal, in the assay with CCRF-CEM leukemia, in the assay with HCC-2998 colon, in the assay on HL-60(TB) leukemia and with HOP-92 NSCLC was above 100 µM in each case. The TGI in the assay on K-562 leukemia, with OVCAR-5 ovarian and in the assay on SW-620 colon was above 100 µM throughout.

As to `Cc1cccc(NC(N)=S)c1`, the TGI in the assay with ACHN renal, with CCRF-CEM leukemia, in the assay with HCC-2998 colon, in the assay with HL-60(TB) leukemia, in the assay with K-562 leukemia and in the assay on OVCAR-5 ovarian was above 100 µM each time.

On to `O=C(Nc1ccc(-n2ccc3c(NC(=O)c4ccccc4)ncnc32)cc1)Nc1ccc(Cl)c(C(F)(F)F)c1`, for which the GI50 in the assay with A549 NSCLC was 1.67 µM; in the assay with ACHN renal, 1.58 µM; with CCRF-CEM leukemia, 0.806 µM; in the assay with HCC-2998 colon, 2.47 µM; with HL-60(TB) leukemia, 2.92 µM; with HOP-92 NSCLC, 1.41 µM. For the same molecule, the GI50 in the assay with K-562 leukemia was 1.45 µM; with OVCAR-5 ovarian, 1.66 µM; in the assay with SF-295 CNS it was 1.41 µM; with SW-620 colon, 2.17 µM. For the same molecule, the TGI in the assay on A549 NSCLC came out at 3.58 µM; in the assay on ACHN renal, 3.62 µM; in the assay on CCRF-CEM leukemia, 3.73 µM; in the assay on HCC-2998 colon, 6.54 µM; with HL-60(TB) leukemia, 6.93 µM; with HOP-92 NSCLC, 4 µM. Moreover, the TGI stood at 5.04 µM in the assay with K-562 leukemia, 3.89 µM in the assay with OVCAR-5 ovarian, 3.38 µM in the assay with SF-295 CNS and 4.96 µM in the assay with SW-620 colon.

As to `CCc1cc(C)cc2[n+]1CC=C2C`, the TGI in the assay with A549 NSCLC, in the assay on ACHN renal, in the assay on HCC-2998 colon, in the assay on HL-60(TB) leukemia, with HOP-92 NSCLC and in the assay on OVCAR-5 ovarian was above 100 µM throughout. The TGI in the assay with SF-295 CNS and in the assay with SW-620 colon was above 100 µM in each case.

Turning to `CN(C)C=O.CN(C)C=O.CN1C(C(=O)Nc2ccccn2)=C([O-])c2ccccc2S1(=O)=O.CN1C(C(=O)Nc2ccccn2)=C([O-])c2ccccc2S1(=O)=O.[Cu+2]`, the TGI was above 100 µM with A549 NSCLC; above 100 µM in the assay on ACHN renal; above 100 µM in the assay with HCC-2998 colon; above 100 µM in the assay on HL-60(TB) leukemia; 51.1 µM with HOP-92 NSCLC; above 100 µM in the assay on K-562 leukemia. The TGI in the assay on OVCAR-5 ovarian, in the assay with SF-295 CNS and in the assay on SW-620 colon was above 100 µM each time. Besides, the GI50 in the assay with HCC-2998 colon was above 100 µM; in the assay on HOP-92 NSCLC it was 22.1 µM; with K-562 leukemia, above 100 µM.

`COc1ccc(C(=O)NNC(=O)c2nsc3ccccc23)cc1`: the TGI was above 100 µM in the assay on A549 NSCLC; above 100 µM in the assay with CCRF-CEM leukemia; above 100 µM in the assay on HCC-2998 colon; 82.5 µM with HL-60(TB) leukemia; above 100 µM in the assay with HOP-92 NSCLC; above 100 µM in the assay with K-562 leukemia. The TGI with OVCAR-5 ovarian and in the assay on SW-620 colon was above 100 µM each time.

With `COC(=O)C12OCC34C(CC5C(C)C6=CC(=O)OC6=CC5(C)C3C(O)C1O)OC(=O)C(OC(C)=O)C24` (centres undefined), the TGI with A549 NSCLC was 49.9 µM; in the assay with ACHN renal, 38.9 µM; in the assay on CCRF-CEM leukemia, 32.4 µM; with HCC-2998 colon, 30 µM; in the assay with HL-60(TB) leukemia it was 33.3 µM; in the assay on HOP-92 NSCLC, 35.2 µM. Further, the TGI in the assay with K-562 leukemia came to 54.3 µM; in the assay on OVCAR-5 ovarian, 44.2 µM; in the assay on SF-295 CNS it was 65.7 µM; in the assay on SW-620 colon it was 26.2 µM.

As to `O=C1CC(c2ccccc2)NCCCCN2CC(CN1)C(C(O)c1ccccc1)C2=O` (centres undefined), the TGI in the assay on A549 NSCLC, in the assay with ACHN renal, with CCRF-CEM leukemia, in the assay with HCC-2998 colon, in the assay with HL-60(TB) leukemia and with HOP-92 NSCLC was above 100 µM throughout. Besides, the TGI in the assay with OVCAR-5 ovarian, in the assay with SF-295 CNS and in the assay with SW-620 colon was above 100 µM each time.

In the case of `CC1(C)CCCC2(C)C3=C(CCC12)C(=O)OC3` (centres undefined), the TGI with A549 NSCLC was above 100 µM; with ACHN renal it was above 100 µM; in the assay with CCRF-CEM leukemia, above 100 µM; with HCC-2998 colon it was above 100 µM; in the assay on HL-60(TB) leukemia it was 67.9 µM; in the assay on HOP-92 NSCLC, above 100 µM. Besides, the TGI with OVCAR-5 ovarian, in the assay on SF-295 CNS and with SW-620 colon was above 100 µM throughout.

On to `NC(CCCNc1ccc(O)cc1)C(=O)O` (centres undefined), for which the TGI with A549 NSCLC was above 100 µM; with ACHN renal, above 57.4 µM; in the assay with CCRF-CEM leukemia it was above 71.1 µM; in the assay with HCC-2998 colon, above 100 µM; in the assay on HL-60(TB) leukemia it was 58.3 µM; in the assay with HOP-92 NSCLC it was 63.3 µM. Besides, the TGI in the assay with K-562 leukemia was above 72.1 µM; with OVCAR-5 ovarian, above 100 µM; in the assay on SF-295 CNS it was above 100 µM; in the assay on SW-620 colon, 42.7 µM.

As for `Cc1cc(N2CCCCC2)nc(NCc2cc(Nc3ccnc4cc(Cl)ccc34)ccc2F)n1`, the GI50 with A549 NSCLC is 1.7 µM; with ACHN renal, 1.66 µM; in the assay on CCRF-CEM leukemia it was 0.921 µM; in the assay with HL-60(TB) leukemia, 1.93 µM; in the assay with K-562 leukemia, 2.07 µM; in the assay with SF-295 CNS, 1.32 µM. The GI50 in the assay with SW-620 colon is 1.45 µM. The TGI came to 3.22 µM with A549 NSCLC; 3.25 µM with ACHN renal; 4.33 µM in the assay on CCRF-CEM leukemia; 3.97 µM with HL-60(TB) leukemia; 5.17 µM in the assay with K-562 leukemia; 2.7 µM with SF-295 CNS. In the assay on SW-620 colon, this molecule returned a TGI of 3.59 µM.

`NCc1ccc(O)c(O)c1O`: the TGI in the assay on A549 NSCLC is 63.2 µM; in the assay on ACHN renal it was 55.4 µM; with CCRF-CEM leukemia, 56.6 µM; with HCC-2998 colon, above 81.7 µM; with HL-60(TB) leukemia it was 59.1 µM; in the assay on HOP-92 NSCLC, above 96 µM. The TGI in the assay with K-562 leukemia was 60.6 µM; in the assay on OVCAR-5 ovarian, 40.5 µM; with SF-295 CNS it was above 57.7 µM; in the assay on SW-620 colon it was 43.3 µM.

Turning to `Cn1c(=O)c2c(nc(N3CCOCC3)n2CCCNCC(O)c2ccc(O)c(O)c2)n(C)c1=O` (centres undefined), the TGI with A549 NSCLC, in the assay with ACHN renal, with CCRF-CEM leukemia, in the assay on HOP-92 NSCLC, in the assay on K-562 leukemia and in the assay with OVCAR-5 ovarian was above 100 µM throughout. In addition, the TGI in the assay on SF-295 CNS and in the assay with SW-620 colon was above 100 µM throughout.

As for `Cc1nc2ccccc2c(=O)n1Nc1ccc(C(=O)O)cc1`, the TGI in the assay on A549 NSCLC, in the assay with CCRF-CEM leukemia, in the assay on HCC-2998 colon, with HL-60(TB) leukemia, in the assay on HOP-92 NSCLC and in the assay on K-562 leukemia was above 100 µM throughout. In addition, the TGI in the assay on OVCAR-5 ovarian, in the assay on SF-295 CNS and in the assay with SW-620 colon was above 100 µM throughout.

Regarding `CC(C)C(C)C(O)C(O)C(C)C1CCC2C3COC(=O)C4CC(O)C(O)CC4(C)C3CCC12C` (centres undefined), the TGI in the assay with A549 NSCLC was above 100 µM; in the assay on ACHN renal it was above 100 µM; in the assay with CCRF-CEM leukemia, 67.5 µM; in the assay on HCC-2998 colon, above 100 µM; in the assay with HOP-92 NSCLC, above 100 µM; in the assay on K-562 leukemia it was above 100 µM. For the same molecule, the TGI in the assay with OVCAR-5 ovarian, with SF-295 CNS and with SW-620 colon was above 100 µM each time.
